Values of other authors as cited in patent US20040049352A1, “Designing modulators for glycosyltransferases” (priority 2000, published 2004).

Molecular target: T1, GlcNAc-T II (Rattus norvegicus, UniProt Q09326)
T1 sequence (Q09326 1-442): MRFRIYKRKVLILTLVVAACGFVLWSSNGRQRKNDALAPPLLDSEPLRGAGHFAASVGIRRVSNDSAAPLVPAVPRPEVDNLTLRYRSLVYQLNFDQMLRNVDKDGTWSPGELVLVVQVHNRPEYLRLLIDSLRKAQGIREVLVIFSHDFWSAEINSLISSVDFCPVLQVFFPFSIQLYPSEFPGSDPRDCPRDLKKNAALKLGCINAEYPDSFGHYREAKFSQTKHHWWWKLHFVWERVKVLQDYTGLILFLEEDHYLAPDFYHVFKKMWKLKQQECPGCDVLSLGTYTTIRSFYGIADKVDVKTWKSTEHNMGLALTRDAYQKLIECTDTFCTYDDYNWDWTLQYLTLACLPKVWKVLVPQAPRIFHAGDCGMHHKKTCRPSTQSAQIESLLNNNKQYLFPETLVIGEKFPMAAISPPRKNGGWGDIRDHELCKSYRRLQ
Settings: inhibition studies

SMILES	binding to the enzyme GlcNAc-T II
CC(=O)N[C@@H]1[C@@H](O)[C@H](O)[C@@H](CO)O[C@@H]1O [GlcNAc, 2-acetamido-2-deoxy-α-D-glucopyranose]	neither GlcNAc nor GlcNAc-α-l-phosphate binds
CC(=O)N[C@H]1[C@@H](OP(=O)(O)O)O[C@H](CO)[C@@H](O)[C@@H]1O [GlcNAc-α-l-phosphate]	neither GlcNAc nor GlcNAc-α-l-phosphate binds
CC(=O)N[C@H]1[C@@H](OP(=O)(O)OP(=O)(O)OC[C@H]2O[C@@H](n3ccc(=O)[nH]c3=O)[C@H](O)[C@@H]2O)O[C@H](CO)[C@H](O)[C@@H]1O [UDP-GalNAc]	do bind
